Patent US8486939B2, “Pyrimidinyl and 1,3,5-triazinyl benzimidazoles and their use in cancer therapy” (Pathway Therapeutics Inc., priority 2009, dated 2013)

Tests used:
[1] = test system: PI3K; conditions: background, literature; cited from earlier work
[2] = test system: human tumor xenografts; conditions: mice with human tumor xenografts; cited from earlier work
[3] = target: p110δ/p85 (Homo sapiens, UniProt O00329); assay: Inhibition of isolated enzyme (lipid kinase assay, [γ33P]ATP, TLC); assay type: biochemical; conditions: recombinant enzyme, 100 μM ATP, 1 hr room temperature, average of two experiments
Chain of p110δ/p85 (O00329 whole entry, species assumed): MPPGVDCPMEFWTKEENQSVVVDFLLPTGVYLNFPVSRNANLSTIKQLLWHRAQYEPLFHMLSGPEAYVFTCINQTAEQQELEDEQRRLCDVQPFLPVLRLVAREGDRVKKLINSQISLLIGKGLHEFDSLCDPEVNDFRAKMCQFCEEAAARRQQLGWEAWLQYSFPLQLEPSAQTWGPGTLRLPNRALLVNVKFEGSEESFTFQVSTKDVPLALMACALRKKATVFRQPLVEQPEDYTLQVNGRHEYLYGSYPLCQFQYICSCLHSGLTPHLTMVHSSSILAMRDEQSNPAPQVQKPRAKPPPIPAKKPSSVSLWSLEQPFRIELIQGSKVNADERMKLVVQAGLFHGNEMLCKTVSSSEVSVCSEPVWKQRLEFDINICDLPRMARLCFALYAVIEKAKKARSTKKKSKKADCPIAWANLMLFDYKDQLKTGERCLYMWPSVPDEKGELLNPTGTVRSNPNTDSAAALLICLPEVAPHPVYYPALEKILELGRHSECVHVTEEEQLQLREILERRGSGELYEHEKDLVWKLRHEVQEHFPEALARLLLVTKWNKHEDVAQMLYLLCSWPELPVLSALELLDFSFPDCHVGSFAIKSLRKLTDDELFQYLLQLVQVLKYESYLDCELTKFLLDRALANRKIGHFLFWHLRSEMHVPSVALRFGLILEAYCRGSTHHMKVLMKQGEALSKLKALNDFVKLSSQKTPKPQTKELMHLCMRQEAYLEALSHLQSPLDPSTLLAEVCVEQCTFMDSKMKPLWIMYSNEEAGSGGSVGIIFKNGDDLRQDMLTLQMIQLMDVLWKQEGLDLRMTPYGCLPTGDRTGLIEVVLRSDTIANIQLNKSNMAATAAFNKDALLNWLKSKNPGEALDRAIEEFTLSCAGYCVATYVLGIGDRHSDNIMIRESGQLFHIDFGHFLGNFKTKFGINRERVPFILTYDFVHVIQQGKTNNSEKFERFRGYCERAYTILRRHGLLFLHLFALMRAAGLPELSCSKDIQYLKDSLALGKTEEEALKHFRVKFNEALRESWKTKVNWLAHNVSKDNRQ
Chain of p110δ/p85 (P27986 whole entry partner, species assumed): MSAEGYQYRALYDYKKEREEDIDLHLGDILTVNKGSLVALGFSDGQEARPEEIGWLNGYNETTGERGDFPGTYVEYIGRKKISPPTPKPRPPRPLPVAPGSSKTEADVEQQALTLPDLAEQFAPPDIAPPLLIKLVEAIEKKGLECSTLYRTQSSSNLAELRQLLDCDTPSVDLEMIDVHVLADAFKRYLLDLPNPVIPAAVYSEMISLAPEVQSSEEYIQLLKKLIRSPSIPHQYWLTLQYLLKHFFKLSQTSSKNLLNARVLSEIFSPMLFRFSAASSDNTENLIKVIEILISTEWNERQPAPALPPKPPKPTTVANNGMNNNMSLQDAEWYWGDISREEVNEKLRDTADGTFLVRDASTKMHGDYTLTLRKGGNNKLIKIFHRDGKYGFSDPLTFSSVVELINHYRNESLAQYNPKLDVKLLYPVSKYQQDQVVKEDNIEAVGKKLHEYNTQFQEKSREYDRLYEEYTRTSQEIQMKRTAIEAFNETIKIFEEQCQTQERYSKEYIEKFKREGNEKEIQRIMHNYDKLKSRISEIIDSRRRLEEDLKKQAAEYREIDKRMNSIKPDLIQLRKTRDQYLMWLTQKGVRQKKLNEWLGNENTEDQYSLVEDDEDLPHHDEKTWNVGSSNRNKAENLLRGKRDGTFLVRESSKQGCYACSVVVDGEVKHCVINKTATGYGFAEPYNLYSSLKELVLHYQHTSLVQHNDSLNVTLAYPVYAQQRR
Summary of the method: (§1)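 Each recombinant p110/p85 enzyme (0.1 μg) was incubated with 10 μg L-α-phosphatidylinositol in Tris-HCl pH 7.4 buffer with NaCl and EDTA, 1% final DMSO, and was started with ATP mix (100 μM ATP, 5 mM MgCl2, [γ33P]ATP). Reactions ran 1 h at room temperature, and the lipids were extracted, TLC-separated and phosphorimaged. IC50 came from nine concentrations and is the mean of two experiments.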

[4] = target: p110α/p85 (Homo sapiens, UniProt P42336); assay: as above; assay type: biochemical; conditions: recombinant enzyme, 100 μM ATP, 1 hr room temperature, average of two experiments
Chain of p110α/p85 (P42336 whole entry): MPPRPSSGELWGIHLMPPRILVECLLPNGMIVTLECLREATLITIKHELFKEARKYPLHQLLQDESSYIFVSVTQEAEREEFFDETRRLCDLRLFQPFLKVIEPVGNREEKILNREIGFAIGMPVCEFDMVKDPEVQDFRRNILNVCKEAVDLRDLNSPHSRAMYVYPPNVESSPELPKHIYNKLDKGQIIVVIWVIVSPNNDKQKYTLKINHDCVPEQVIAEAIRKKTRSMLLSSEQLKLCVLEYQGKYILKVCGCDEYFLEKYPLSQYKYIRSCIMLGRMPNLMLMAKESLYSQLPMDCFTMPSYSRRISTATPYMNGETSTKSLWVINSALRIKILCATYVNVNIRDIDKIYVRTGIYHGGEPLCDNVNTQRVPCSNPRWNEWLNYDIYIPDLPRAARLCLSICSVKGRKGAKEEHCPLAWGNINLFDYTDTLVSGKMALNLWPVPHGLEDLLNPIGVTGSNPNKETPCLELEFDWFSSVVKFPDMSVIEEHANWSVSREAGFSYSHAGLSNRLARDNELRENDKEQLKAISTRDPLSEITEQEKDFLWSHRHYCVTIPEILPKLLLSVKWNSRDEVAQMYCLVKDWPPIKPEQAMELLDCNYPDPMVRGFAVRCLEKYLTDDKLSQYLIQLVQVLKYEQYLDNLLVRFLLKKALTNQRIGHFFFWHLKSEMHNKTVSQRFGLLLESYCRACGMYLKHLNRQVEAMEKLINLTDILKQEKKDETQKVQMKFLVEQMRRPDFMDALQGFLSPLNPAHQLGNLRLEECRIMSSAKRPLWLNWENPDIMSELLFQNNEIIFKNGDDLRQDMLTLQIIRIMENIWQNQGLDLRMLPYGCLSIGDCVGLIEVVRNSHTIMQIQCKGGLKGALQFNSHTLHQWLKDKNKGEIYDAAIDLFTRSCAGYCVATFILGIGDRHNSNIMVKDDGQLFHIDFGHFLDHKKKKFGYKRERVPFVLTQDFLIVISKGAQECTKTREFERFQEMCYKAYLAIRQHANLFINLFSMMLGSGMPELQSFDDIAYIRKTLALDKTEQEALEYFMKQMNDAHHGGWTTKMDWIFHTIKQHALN
Chain of p110α/p85 (P27986 whole entry partner): as the sequence (P27986 whole entry partner, species assumed) above
Summary of the method: as §1

[5] = target: p110β/p85 (Homo sapiens, UniProt P42338); assay: as above; assay type: biochemical; conditions: recombinant enzyme, 100 μM ATP, 1 hr room temperature, average of two experiments
Chain of p110β/p85 (P42338 whole entry, species assumed): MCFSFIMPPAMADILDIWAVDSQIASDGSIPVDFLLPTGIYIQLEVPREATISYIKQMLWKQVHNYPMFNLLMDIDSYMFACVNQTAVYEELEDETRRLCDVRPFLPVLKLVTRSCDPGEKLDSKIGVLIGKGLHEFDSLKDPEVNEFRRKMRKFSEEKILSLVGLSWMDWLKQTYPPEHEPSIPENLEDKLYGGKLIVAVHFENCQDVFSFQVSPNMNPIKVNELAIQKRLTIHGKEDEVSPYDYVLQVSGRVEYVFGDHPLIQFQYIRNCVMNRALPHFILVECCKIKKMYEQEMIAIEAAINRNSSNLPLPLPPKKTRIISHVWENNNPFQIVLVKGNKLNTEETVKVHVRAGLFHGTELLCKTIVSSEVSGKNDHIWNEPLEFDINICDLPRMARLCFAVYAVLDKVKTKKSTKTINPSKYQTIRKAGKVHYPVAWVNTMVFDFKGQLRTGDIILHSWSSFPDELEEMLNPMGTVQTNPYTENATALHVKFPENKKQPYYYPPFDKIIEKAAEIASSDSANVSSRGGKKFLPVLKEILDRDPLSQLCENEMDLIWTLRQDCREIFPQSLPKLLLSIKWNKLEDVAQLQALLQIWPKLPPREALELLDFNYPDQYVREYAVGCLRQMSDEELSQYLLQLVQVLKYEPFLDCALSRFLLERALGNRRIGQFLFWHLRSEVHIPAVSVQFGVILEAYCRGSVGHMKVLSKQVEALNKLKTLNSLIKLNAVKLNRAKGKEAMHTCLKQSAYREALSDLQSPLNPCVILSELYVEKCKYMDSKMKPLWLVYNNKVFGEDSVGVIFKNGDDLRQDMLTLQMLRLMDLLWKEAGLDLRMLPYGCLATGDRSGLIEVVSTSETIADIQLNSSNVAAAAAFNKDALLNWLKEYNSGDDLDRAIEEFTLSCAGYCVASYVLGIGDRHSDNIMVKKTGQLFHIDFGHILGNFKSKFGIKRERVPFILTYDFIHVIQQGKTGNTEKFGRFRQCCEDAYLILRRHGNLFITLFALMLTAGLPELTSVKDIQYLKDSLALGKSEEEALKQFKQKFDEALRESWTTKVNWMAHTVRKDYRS
Chain of p110β/p85 (P27986 whole entry partner, species assumed): as the sequence (P27986 whole entry partner, species assumed) above
Summary of the method: as §1

[6] = test system: NZOV9; assay: Cellular growth inhibition (3H-thymidine incorporation); assay type: cell-based; conditions: Homo sapiens, five days incubation, 3H-thymidine over the last 6 hrs, read-out: Cell IC50* NZOV9
Procedure: (§2) The compounds were evaluated against two early passage human cell lines NZB5 and NZOV9 (Marshall et al., Oncol. Res. 2004, 14, 297). The cells were grown in ITS medium (α-modified minimal essential medium supplemented insulin, transferrin, selenite, and 5% fetal bovine serum) and grown on 96-well tissue culture plates under an atmosphere of 5% O2, 5% CO2, and 90% N2. Individual wells contained 500-1,000 cells (depending on the growth rate) in a volume of 150 μL. Compounds were added at 10-fold concentration steps to a maximum of 20 μM and plates were incubated for five days, with ^3H-thymidine being added over the last 6 hrs. Cells were harvested and incorporated radioactivity measured. Duplicate samples were analyzed for each compound dose with multiple control samples. Data were fitted by a least-squares method to an exponential of the form y=y0+ae^−bx, where y is the radioactivity (corrected for background and normalized to 100% of the control), x is the […], and y0, a, and b are variables, and the IC50 value defined as the compound concentration reducing ^3H-thymidine levels by 50%.

[7] = test system: NZB5; assay: as above; assay type: cell-based; conditions: Homo sapiens, five days incubation, 3H-thymidine over the last 6 hrs, read-out: Cell IC50* NZB5
Procedure: as §2

**Q.** Which PI3K isoform selectivity [1] does the source give for `FC(F)c1nc2ccccc2n1-c1nc(N2CCOCC2)nc(N2CCOCC2)n1` [ZSTK474] here?
**A.** Its PI3K isoform selectivity is “non-selective”.

**Q.** Which PI3K isoform selectivity [1] does the source give for `Cc1cc(C(C)Nc2ccccc2)c2nc(N3CCOCC3)cc(=O)n2c1` (centres unmarked) [TGX221] here?
**A.** Its PI3K isoform selectivity is “β-selective”.

**Q.** With `O=c1cc(N2CCOCC2)oc2c(-c3ccccc3)cccc12` [LY294002] as the compound, how does the tolerability [2] read?
**A.** The tolerability was “well-tolerated”.

**Q.** What does the source list for `FC(F)c1nc2ccccc2n1-c1nc(Nc2cccnn2)nc(N2CCOCC2)n1` [Example 23, 4-[2-(difluoromethyl)-1H-benzimidazol-1-yl]-6-(4-morpholinyl)-N-(3-pyridazinyl)-1,3,5-triazin-2-amine]?
**A.** melting point: 271 to 273 °C; IC50 [3]: < 100 nM; IC50 [4]: < 100 nM; IC50 [5]: 100 to 1000 nM; IC50 [6]: 100 to 1000 nM; IC50 [7]: 100 to 1000 nM

**Q.** With `FC(F)c1nc2ccccc2n1-c1nc(NCc2ccccc2)nc(N2CCOCC2)n1` [Example 8, N-benzyl-4-[2-(difluoromethyl)-1H-benzimidazol-1-yl]-6-(4-morpholinyl)-1,3,5-triazin-2-amine] as the compound, how does the melting point read?
**A.** The melting point was 185 to 188 °C.

**Q.** And the IC50 [3]?
**A.** Its IC50 is < 100 nM.

**Q.** And the IC50 [4]?
**A.** Its IC50 is 100 to 1000 nM.

**Q.** What about the IC50 [5] of the same compound?
**A.** Its IC50 is < 100 nM.

**Q.** And the IC50 [6]?
**A.** The IC50 was 100 to 1000 nM.

**Q.** What about the IC50 [7] of the same compound?
**A.** The IC50 was 100 to 1000 nM.

**Q.** Which melting point does the source give for `FC(F)c1nc2ccccc2n1-c1nc(NCc2cccnc2)nc(N2CCOCC2)n1` [Example 14, 4-[2-(difluoromethyl)-1H-benzimidazol-1-yl]-6-(4-morpholinyl)-N-(3-pyridinylmethyl)-1,3,5-triazin-2-amine] here?
**A.** The melting point was 160 to 161 °C.

**Q.** What about the IC50 [3] of the same compound?
**A.** Its IC50 is < 100 nM.

**Q.** And the IC50 [4]?
**A.** The IC50 was 100 to 1000 nM.

**Q.** What about the IC50 [5] of the same compound?
**A.** The IC50 was 100 to 1000 nM.

**Q.** And the IC50 [6]?
**A.** Its IC50 is 100 to 1000 nM.

**Q.** What about the IC50 [7] of the same compound?
**A.** The IC50 was 1000 to 10000 nM.

**Q.** For `COc1ccc(Nc2nc(N3CCOCC3)nc(-n3c(C(F)F)nc4c(OC)cccc43)n2)nn1` [Example 34, 4-[2-(difluoromethyl)-4-methoxy-1H-benzimidazol-1-yl]-N-(6-methoxy-3-pyridazinyl)-6-(4-morpholinyl)-1,3,5-triazin-2-amine], which melting point is on record?
**A.** The melting point was 256 to 259 °C.

**Q.** What about the IC50 [3] of the same compound?
**A.** The IC50 was < 100 nM.

**Q.** And the IC50 [4]?
**A.** Its IC50 is < 100 nM.

**Q.** And the IC50 [5]?
**A.** The IC50 was 100 to 1000 nM.

**Q.** What about the IC50 [6] of the same compound?
**A.** The IC50 was 100 to 1000 nM.

**Q.** What about the IC50 [7] of the same compound?
**A.** The IC50 was 100 to 1000 nM.

**Q.** For `FC(F)c1nc2ccccc2n1-c1nc(Sc2ccccc2)nc(N2CCOCC2)n1` [Example 11, 2-(difluoromethyl)-1-[4-(4-morpholinyl)-6-(phenylsulfanyl)-1,3,5-triazin-2-yl]-1H-benzimidazole], which melting point is on record?
**A.** The melting point was 245 to 248 °C.

**Q.** And the IC50 [3]?
**A.** The IC50 was 1000 to 10000 nM.

**Q.** And the IC50 [4]?
**A.** The IC50 was > 10000 nM.

**Q.** And the IC50 [5]?
**A.** Its IC50 is > 10000 nM.

**Q.** And the IC50 [6]?
**A.** The IC50 was > 10000 nM.

**Q.** What about the IC50 [7] of the same compound?
**A.** Its IC50 is > 10000 nM.

**Q.** For `Cc1ccccc1-n1c(Cn2cnc3c(N)ncnc32)nc2cccc(C)c2c1=O` [IC87114], which PI3K isoform selectivity [1] is on record?
**A.** The PI3K isoform selectivity was “δ-selective”.

**Q.** For `Oc1cccc(-c2nc(N3CCOCC3)c3oc4ncccc4c3n2)c1` [PI103], which PI3K isoform selectivity [1] is on record?
**A.** Its PI3K isoform selectivity is “slightly α-selective”.

**Q.** For `COc1cccc2c1nc(C(F)F)n2-c1nc(Nc2cccnc2)nc(N2CCOCC2)n1` [Example 2, 4-[2-(difluoromethyl)-4-methoxy-1H-benzimidazol-1-yl]-6-(4-morpholinyl)-N-(3-pyridinyl)-1,3,5-triazin-2-amine], which melting point is on record?
**A.** The melting point was 221 to 223 °C.

**Q.** What about the IC50 [3] of the same compound?
**A.** Its IC50 is < 100 nM.

**Q.** What about the IC50 [4] of the same compound?
**A.** The IC50 was < 100 nM.

**Q.** What about the IC50 [5] of the same compound?
**A.** Its IC50 is 100 to 1000 nM.

**Q.** What about the IC50 [6] of the same compound?
**A.** The IC50 was < 100 nM.

**Q.** And the IC50 [7]?
**A.** The IC50 was < 100 nM.

**Q.** With `COc1ccc(Nc2nc(N3CCOCC3)nc(-n3c(C(F)F)nc4c(OC)cccc43)n2)cn1` [Example 28, 4-[2-(difluoromethyl)-4-methoxy-1H-benzimidazol-1-yl]-N-(6-methoxy-3-pyridinyl)-6-(4-morpholinyl)-1,3,5-triazin-2-amine] as the compound, how does the melting point read?
**A.** Its melting point is 201 to 202 °C.

**Q.** And the IC50 [3]?
**A.** The IC50 was < 100 nM.

**Q.** What about the IC50 [4] of the same compound?
**A.** The IC50 was < 100 nM.

**Q.** And the IC50 [5]?
**A.** The IC50 was < 100 nM.

**Q.** What about the IC50 [6] of the same compound?
**A.** The IC50 was < 100 nM.

**Q.** And the IC50 [7]?
**A.** The IC50 was < 100 nM.
